Data reported in US6413999B1, “Treatment for acute physical insult to the central nervous system” (University of Saskatchewan Technologies Inc., priority 1999, dated 2002).

Experiments:
Type in all cases: in vivo, rat
[1] = Body weight after spinal cord clip compression injury; details: T6 clip compression; OTC 12 mmoles/kg i.p. 30 min after injury, then 4 mmoles/kg every 12 h for five days; pre-surgery 328.3±4.2 g; saline 403.9±9.5 g; P=0.0337
Protocol: Adult male Wistar rats (˜320 g) were obtained from Charles River Canada and housed in a temperature-regulated animal facility, exposed to a 12 hour light/dark cycle and had free access to food and water. Animals were treated in accordance with the guidelines of the Canadian Council on Animal Care. Prior in surgery, the rats received the analgesic Buprenorphine-hydrochloride subcutaneously at a dose of 0.05 mg/kg and then every 12 hours for the first 72 hours following surgery. Anesthesia was performed with Halothane (5% induction and 1% maintenance). Laminectomy was performed aseptically at T5-T6 to expose the spinal cord. A 5-second clip compression injury was induced at the T6 spinal cord level using a modified Kerr-Lougheed aneurysm clip with a calibrated force of 50 g as described in Rivlin et al. (Surg. Neurol., 9, 39-43, 1979) and Khan et al. (Can. J. Neurol. Sci., 10, 161-165, 1983). For delivery of drug or saline vehicle a sterile catheter was placed subcutaneously running from the dorsum to enter the peritoneal cavity ventrally; this was done before the laminectomy was performed. Thirty minutes following spinal cord compression an initial dose of OTC or phosphate-buffered saline vehicle (“saline”) was delivered intraperitoneally and then subsequent doses were administered every 12 hours for the next five days. […]

[2] = tested on: rats with acute physical insult to the CNS; assay: Inflammation (observation, ICAM-1 and iNOS levels) following insult; details: OTC following insult, compared to saline-treated controls
Protocol: Inflammation was assessed by observation and by measurement of ICAM-1 and iNOS levels. A significant increase in inflammation was observed following insult.

[3] = tested on: Wistar rats with clip compression injury at the T6 spinal cord level; assay: Spinal cord histomorphometry (luxol fast blue white matter) 6 weeks after injury
Protocol: (§1) Adult male Wistar rats (˜320 g) were obtained from Charles River Canada and housed in a temperature-regulated animal facility, exposed to a 12 hour light/dark cycle and had free access to food and water. Animals were treated in accordance with the guidelines of the Canadian Council on Animal Care. Prior in surgery, the rats received the analgesic Buprenorphine-hydrochloride subcutaneously at a dose of 0.05 mg/kg and then every 12 hours for the first 72 hours following surgery. Anesthesia was performed with Halothane (5% induction and 1% maintenance). Laminectomy was performed aseptically at T5-T6 to expose the spinal cord. […]
Following 6 weeks of behavioral evaluation, the spinal cords were fixed by transcardial perfusion with 0.03M phosphate-buffered saline (pH 7.4) containing 1% sodium nitrite in rats anesthetized with Halothane, followed by perfusion (100 ml/100 g) with either 4% formaldehyde (freshly prepared from paraformaldehyde) or FAM solution (formaldehyde, acetic acid and methanol in 1:1:8 ratio) and left in the same fixative for 5 days. […] Area of white matter was quantified using Northern Eclipse™ software and expressed in pixels.

[4] = tested on: rats with unilateral carotid artery ligation and 12% oxygen atmosphere; assay: Vascular event model (unilateral carotid artery ligation plus 12% oxygen): brain damage and GSH
Protocol: Nine to eleven week old rats were obtained and housed as described in Example 1A. Animals were treated in accordance with the guidelines of the Canadian Council on Animal Care.
The rats were randomly divided into two groups. Both groups of rats underwent unilateral carotid artery ligation and were then subjected to a 12% oxygen atmosphere for 35 minutes. Fifteen minutes after insult, rats of one group received an initial dose of OTC (12 mmoles/kg body weight) and rats of the other group receive the phosphate-buffered saline vehicle (“saline”). Rats received subsequent doses of OTC (4 mmoles/kg body weight) or saline, as appropriate, every 12 hours for 3 days.
Rats were sacrificed 1 week following insult and brain damage was assessed.
Brain damage following a vascular event was assessed using the method of Thornhill, et al. (Brain Res. 825(1-2):36-45 (1999).

[5] = tested on: Wistar rats with clip compression injury at the T6 spinal cord level; assay: Spinal cord protein carbonyl content after clip compression injury at T6; details: 24 hours post-trauma; T5 (P<0.05), T6, T7 (P<0.01), T9 (P<0.05) versus saline; FIG. 3
Protocol: as §1
(§2) A total of 54 animals were used to determine the onset of oxidative stress following insult. […] Spinal cord segments were frozen in liquid nitrogen and stored at −80° C. until analyzed.
Protein carbonyl content was determined spectrophotometrically using 2,4-dinitrophenylhydrazine (DNPH) to trap carbonyls with the adduct formed measured at 360 nm. Results are expressed as pmoles of DNPH incorporated per mg of protein calculated using a molar absorption coefficient of 22,000 M^−1 cm^−1 for aliphatic hydrazones.

[6] = tested on: Wistar rats with clip compression injury at the T6 spinal cord level; assay: Spinal cord GSH content after 50 g clip compression injury at T6; details: 26 hours following injury and 2 hours following OTC administration; versus saline P=0.0033; FIG. 4
Protocol: (§3) Adult male Wistar rats (˜320 g) were obtained from Charles River Canada and housed in a temperature-regulated animal facility, exposed to a 12 hour light/dark cycle and had free access to food and water. Animals were treated in accordance with the guidelines of the Canadian Council on Animal Care. Prior in surgery, the rats received the analgesic Buprenorphine-hydrochloride subcutaneously at a dose of 0.05 mg/kg and then every 12 hours for the first 72 hours following surgery. Anesthesia was performed with Halothane (5% induction and 1% maintenance). Laminectomy was performed aseptically at T5-T6 to expose the spinal cord. A 5-second clip compression injury was induced at the T6 spinal cord level using a modified Kerr-Lougheed aneurysm clip with a calibrated force of 50 g as described in Rivlin et al. (Surg. Neurol., 9, 39-43, 1979) and Khan et al. (Can. J. Neurol. Sci., 10, 161-165, 1983). […]
as §2
GSH was measured using 5,5′-dithio-bis(2-nitrobenzoic) acid-derivatization (“DTNB”) followed by HPLC and UV detection. […] The homogenates were centrifuged at 10,000 g for 15 min and supernatants collected, derivatized and analyzed using the Shimadzu reversed-phase HPLC with ultraviolet detection. […]

[7] = tested on: Wistar rats with clip compression injury at the T6 spinal cord level; assay: Functional recovery after spinal cord compression (angleboard, modified Tarlov score, BBB scale)
Protocol: as §1
A semiquantitative assessment of hindlimb function during open field walking gas performed using the modified Tarlov score (Tariq et al.). Spontaneous activity of hind limb was scored as follows: 0=total paraplegia of hindlimbs; 1=no spontaneous movements but responds to hindlimb pinch; 2=spontaneous movement; 3=able to support weight but unable to walk; 4=walks with gross deficit; 5=walks with mild deficit on broad flat surface, 6=able to walk on broad flat surface and support weight on a 1.8 cm wide ledge; 7=walks on ledge. […]

[8] = tested on: Wistar rats with clip compression injury at the T6 spinal cord level; assay: Spinal cord glutathione reductase activity after clip compression injury at T6; details: 24 hours following spinal cord injury; T5 (P<0.05), T6, T7, T9 (P<0.01) versus saline vehicle; FIG. 2
Protocol: as §3, §2
Glutathione reductase was calculated by measuring the disappearance of NADPH (SIGMA (trade-mark)) in the presence of oxidized-glutathione based upon the procedure described by Eklow et al. (Eur. J. Biochem. 138, 459-463 (1984)), as applied in Juurlink et al (Glia 22, 371-378, 1998)).

## O=C1N[C@H](C(=O)O)CS1 [OTC, L-2-oxothiazolidine-4-carboxylate]
[1]
  weight of animals 6 weeks after surgery: 434.3 ± 9.3 g
[2]
  levels of inflammation (ICAM-1 and iNOS): lower levels of inflammation
[3]
  grey matter sparing at T6: did not result in grey matter sparing
[4]; 1 week following insult, OTC 12 mmoles/kg 15 min after insult, then 4 mmoles/kg every 12 h for 3 days, saline score 2.67, FIG. 9
  brain damage score: 1.86
[4]; insult by a vascular event, compared to saline-treated animals
  concentrations of GSH in the affected CNS regions: higher concentrations of GSH
[5]
  protein carbonyl content in spinal cord: significantly decreased protein carbonyl formation
[6]
  GSH levels in the affected CNS region: increased GSH levels
[7]; 6 weeks after trauma, scale 0-7, after trauma 1, saline 2.4, FIG. 8a
  modified Tarlov score: 4.1
[7]; 6 weeks recovery, before insult 59°, after insult 28°, saline 32°, FIG. 7
  angleboard capacity angle: 42 °
[8]
  glutathione reductase activity in spinal cord: significantly inhibited the decrease in glutathione reductase activity
